These results are taken from US11498896B2 (The Broad Institute, Inc., priority 2014, dated 2022).

In data set [1] the target is T1, human D2R/β-arrestin (Homo sapiens (Human), UniProt P14416). The experiment in a line: β-arrestin agonist assay (PathHunter). Type of data set: cell-based. As to conditions: CHO-K1 cells expressing human D2R/β-arrestin; agonist mode. The procedure: The detection reagent (9.6 μL, Buffer:Emerald II:Galactor-Star in a 19:5:1 ratio, i.e., 14.06 mL:3.7 mL:0.74 mL=18.5 mL) was then added to the agonist plates.

Data set [2] has as its target T1, human D2R/β-arrestin. Description: cell-based. The settings on record: cAMP Antagonist, CHO-K1 cells expressing human D2R/β-arrestin; antagonist mode, 2.5 μM forskolin and 2.7 nM quinpirole.
In the next data set the target is D2 receptor (Homo sapiens (Human), UniProt P14416). Description: D2 radioligand binding assay.
For data set [3], the target named is T1, human D2R/β-arrestin. The experiment in a line: cell-based. As to conditions: β-arrestin Antagonist, CHO-K1 cells expressing human D2R/β-arrestin; antagonist mode, quinpirole 130 nM.
A further data set can be described thus: Brain protein binding. The format is in vitro ADME.
Data set [4] concerns D2R-mediated GSK3 signaling. The experiment in a line: D2R-mediated GSK3 signaling in HEK293T cells. The format is cell-based. As to conditions: HEK293T cells expressing both D2R and DISC1; 10 μM and 30 μM. From the text: Example 90 blocks β-arrestin signaling downstream of D2R and leads to modulation of GSK3 signaling.
For another data set, the system named is mice. Description: Rotarod performance. Type of data set: in vivo. As to conditions: 30 mg/kg IP in mice. How it is done: In the test, mice are placed on a horizontally oriented, rotating cylinder (rod) suspended above a cage floor, which is low enough not to injure the animal, but high enough to induce avoidance of fall. The mice naturally try to stay on the rotating cylinder, or rotarod, and avoid falling to the ground. Mice are administered clozaril at 3 mg/kg (test group); or a compound of Formula (I) (either 10 mg/kg or 30 mg/kg or vehicle). The mice have an average weight of 20 grams (as do the mice in all examples herein). The length of time that a given animal stays on this rotating rod is a measure of the animal's balance, coordination, physical condition, and motor-planning. The speed of the rotarod is mechanically driven, and is held constant.
A general note: In the rotarod test animals must keep their balance on a rotating rod.

T1 sequence (P14416 whole entry): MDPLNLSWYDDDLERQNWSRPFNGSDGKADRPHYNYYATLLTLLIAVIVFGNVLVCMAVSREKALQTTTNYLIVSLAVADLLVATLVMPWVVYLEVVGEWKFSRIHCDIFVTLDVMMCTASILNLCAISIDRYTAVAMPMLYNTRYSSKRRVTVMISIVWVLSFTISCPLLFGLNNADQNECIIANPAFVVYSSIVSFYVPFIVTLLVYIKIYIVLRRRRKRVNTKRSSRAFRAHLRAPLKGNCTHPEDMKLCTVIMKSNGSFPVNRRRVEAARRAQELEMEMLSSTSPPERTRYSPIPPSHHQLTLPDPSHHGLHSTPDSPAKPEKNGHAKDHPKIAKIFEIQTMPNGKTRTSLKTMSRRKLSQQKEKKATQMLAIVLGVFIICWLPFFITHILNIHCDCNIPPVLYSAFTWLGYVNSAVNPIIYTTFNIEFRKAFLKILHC
Sequence of D2 receptor (P14416 whole entry): as above

In turn, `CC1(Oc2ccc(Cl)cc2)CCN(CCOc2ccccc2C(F)(F)F)CC1` [Compound 90, 4-(4-Chlorophenoxy)-4-methyl-1-(2-(2-(trifluoromethyl)phenoxy)ethyl) piperidine] came in with a 50% effective concentration (EC50) at human D2R/β-arrestin [1] of 1000 to 10000 nM. The IC50 at human D2R/β-arrestin [2] is > 30000 nM; against human D2R/β-arrestin [3] it was 100 to 1000 nM. At D2 receptor, this molecule showed a Ki of 100 to 1000 nM. In the data set “Brain protein binding”, the free fraction (fraction unbound) is < 0.001. The “block of D2R activation-induced reduction of GSK3-α/β (Ser 21/9) phosphorylation” value in data set [4] is given as “blocked”. The “motoric side effects (rotarod performance)” value with mice is on record as “does not induce motoric side effects”.

Usually EC50 stands for the concentration needed to bring the measured effect to its halfway point. For orientation: IC50 means the concentration that gives 50% inhibition. High values mean a need for much substance, low ones inhibition by little substance. For orientation: Ki means a dissociation constant, usually derived from enzyme kinetics or from competition with a known ligand. Broadly, the fraction unbound is the share of the substance not bound to proteins or other matrix. Lower therefore signals little free substance.
